Assay results published in US20030109675A1 (priority 2001, published 2003).
Values joined by “and” are separate entries in the source; they are usually repeats but may differ in a detail not shown here. Equal values may be shown once.

Columns and labels:
DegP protease = DegP protease (Escherichia coli, UniProt P0C0V0); details: for effect of divalent cation on DegP cleavage of PapA-6H4A-rcm: 5 mM
DegP [1] = molecular target: T1, DegP (Escherichia coli, UniProt P0C0V0); details: cited from earlier work
DegP [2] = molecular target: T1, DegP; details: for cleavage of fluorescence-quench peptide by DegP: 8 μM (SPCJ-12) or 10 μM peptide, 25 mM HEPES, 5 mM CaCl2, 45° C.
DegP [3] = molecular target: T1, DegP; details: scaled-up (5 ml) cleavage reaction, MALDI-TOF MS of products
DegP [4] = molecular target: T1, DegP; details: 7-mer and 12-mer Abz-tagged cellulose-bound peptides, 0.28 mg/ml DegP, 5 mM MgCl2, up to 28 hours
[5] = molecular target: SPCJ-14 - Abz-[…]-DAP(Dnp)-NH2

Q: With `[Ca+2].[Cl-].[Cl-]` [CaCl2, reference compound] as the molecule, how does the “effect of divalent cation on DegP cleavage of PapA-6H4A-rcm” value (DegP protease) read?
A: stimulated DegP cleavage

Q: Which “input PapA-6H4A-rcm cleaved by DegP in presence of divalent cation” value (DegP protease; 5 mM cation, 20 μg DegP, 20 μg substrate, 4 hours at 45° C.) does the source give for `[Cl-].[Cl-].[Mg+2]` [MgCl2, reference compound] here?
A: ~50%

Q: Which “effect of divalent cation on DegP cleavage of PapA-6H4A-rcm” value (DegP protease) does the source give for `[Cl][Mn][Cl]` [MnCl2, reference compound] here?
A: stimulated DegP cleavage

Q: With `O=S(=O)(F)Cc1ccccc1` [phenylmethylsulfonylfluoride] as the molecule, how does the “inhibition of DegP activity” value (DegP [1]) read?
A: not inhibited

Q: With Abz-HYTASSK-DAP(Dnp)-NH2 [SPCJ-14] as the molecule, how does the “cleavage of fluorescence-quench peptide by DegP” value (DegP [2]; 5 μg DegP) read?
A: lack of cleavage

Q: What about the “inhibition of DegP cleavage of SPCJ-13” value (DegP [2]; 10-fold molar excess (100 μM vs 10 μM SPCJ-13), 30 minutes pre-incubation with 5 μg DegP, then 60 minutes) of the same molecule?
A: blocked cleavage of SPCJ-13

Q: With Abz-HYTAVVK-DAP(Dnp)-NH2 [SPCJ-13] as the molecule, how does the “cleavage of fluorescence-quench peptide by DegP” value (DegP [2]; 5 μg DegP) read?
A: cleaved SPCJ-13 in a time-dependent fashion

Q: What about the “DegP cleavage site in substrate peptide” value (DegP [3]) of the same molecule?
A: cleavage between the paired valine residues

Q: Which “cleavage of fluorescence-quench peptide by DegP” value (DegP [2]; 5 μg DegP) does the source give for Abz-HYTAVVKKSSAV-DAP(Dnp)-NH2 [SPCJ-12] here?
A: cleaved SPCJ-12 in a time-dependent fashion

Q: And the “DegP cleavage site in substrate peptide” value (DegP [3])?
A: cleaved between the paired valine residues

Q: With DGENVLH as the molecule, how does the “cleavage of PapA library peptide by DegP in solid-phase scan” value (shortened to “cleavage of PapA library peptide by DegP”) (DegP [4]) read?
A: cleaved by DegP

Q: For ELVNCDI, which “cleavage of PapA library peptide by DegP” value (DegP [4]) is on record?
A: cleaved by DegP

Q: With FTGPIVNGHSDE as the molecule, how does the “cleavage of PapA library peptide by DegP” value (DegP [4]) read?
A: cleaved by DegP

Q: Which “cleavage of PapA library peptide by DegP” value (DegP [4]) does the source give for HYTAVVK here?
A: cleaved by DegP

Q: For HYTAVVKKSSAV, which “cleavage of PapA library peptide by DegP” value (DegP [4]) is on record?
A: cleaved by DegP

Q: Which “cleavage of PapA library peptide by DegP” value (DegP [4]) does the source give for KLAFTGPIVNGH here?
A: cleaved by DegP

Q: What does the source list for KSMCMKLSFS [SPCJ-1]?
A: PapA-6H4A-rcm cleaved by DegP in presence of activating peptide, 60 minutes (DegP protease; 200 μM peptide, 5 μg DegP, 40 μg substrate, 5 mM MgCl2, 45° C., 60 minutes): 50% and > 50%; PapA-6H4A-rcm cleaved by DegP in presence of activating peptide, four hours (DegP protease; 200 μM peptide, 5 μg DegP, 40 μg substrate, 5 mM MgCl2, 45° C., four hours): ~90%; effect of peptide on DegP cleavage of SPCJ-13 (DegP [2]; 200 μM peptide added at onset of incubation, 5 μg DegP): enhanced cleavage of SPCJ-13

Q: With LDIELVNCDITA as the molecule, how does the “cleavage of PapA library peptide by DegP” value (DegP [4]) read?
A: cleaved by DegP

Q: With NGHSDEL as the molecule, how does the “cleavage of PapA library peptide by DegP” value (DegP [4]) read?
A: cleaved by DegP

Q: For NVLHYTA, which “cleavage of PapA library peptide by DegP” value (DegP [4]) is on record?
A: cleaved by DegP

Q: With TLKDGENVLHYT as the molecule, how does the “cleavage of PapA library peptide by DegP” value (DegP [4]) read?
A: cleaved by DegP

B1: DegP protease (protein)
chain: AETSSATTAQQMPSLAPMLEKVMPSVVSINVEGSTTVNTPRMPRNFQQFFGDDSPFCQEGSPFQSSPFCQGGQGGNGGGQQQKFMALGSGVIIDADKGYVVTNNHVVDNATVIKVQLSDGRKFDAKMVGKDPRSDIALIQIQNPKNLTAIKMADSDALRVGDYTVAIGNPFGLGETVTSGIVSALGRSGLNAENYENFIQTDAAINRGNSGGALVNLNGELIGINTAILAPDGGNIGIGFAIPSNMVKNLTSQMVEYGQVKRGELGIMGTELNSELAKAMKVDAQRGAFVSQVLPNSSAAKAGIKAGDVITSLNGKPISSFAALRAQVGTMPVGSKLTLGLLRDGKQVNVNLELQQSSQNQVDSSSIFNGIEGAEMSNKGKDQGVVVNNVKTGTPAAQIGLKKGDVIIGANQQAVKNIAELRKVLDSKPSVLALNIQRGDSTIYLLMQ
Q: With B1 as the molecule, how does the “cleavage in the fluorescent-quench peptide assay” value [5] read?
A: SPCJ-14 was not cleaved
